Test results: ChEMBL document CHEMBL4052746, “Flavonoid glycosides from Barringtonia acutangula” (Bioorg Med Chem Lett, 2017)

What was measured:
RAW264.7 [1] = experiment: Antiinflammatory activity in mouse RAW264.7 cells assessed as inhibition of LPS-induced NO production pretreated for 30 mins followed by LPS stimulation for 24 hrs by Griess assay; type: functional, cell-based
RAW264.7 [2] = experiment: Cytotoxicity against mouse RAW264.7 cells assessed as reduction in cell viability by MTT assay; type: cell-based

- IC50 (RAW264.7 [1]): 20 µM
SMILES: O=C(OC[C@H]1O[C@@H](Oc2c(-c3ccc(O)c(O)c3)oc3cc(O)cc(O)c3c2=O)[C@H](O)[C@@H](O)[C@H]1O)c1ccc(O)cc1
- Activity (RAW264.7 [2]): Non-Toxic
